# Test results from patent publication US20230257653A1, “FRACTAL FORMULATIONS” (NANOGYRE Sprl., priority 2020, published 2023).
# Like-named read-outs stand apart in the source and are kept apart here.
# Legend:
# [1] = Solubilization of hydrophobic cargo in betaine/Polysorbate 80/water liquid crystal, centrifugation 4000 rpm
# Method: Mixing 2 ml of distilled water and 40 μL of Polysorbate 80, then adding 400 mg of pure curcumin, manually mixing and then adding 2 g of betaine all again mixed by vigorous manual stirring. The mixture of the 4 ingredients is then subjected for 20 minutes to a centrifugation of 4000 rpm.
# (§1) The mixture of the 4 ingredients is then subjected for 30 minutes to a centrifugation of 4000 rpm.
# The mixture of the 4 ingredients is then subjected for 40 minutes to a centrifugation of 4000 rpm.
# as §1
# Mixing 2 ml of distilled water and 35 μL of Polysorbate 80, then adding 50 mg of Clofazimine, mixing manually and then subjecting to a centrifugation of 4000 rpm and then adding 2 g of betaine all again mixed by vigorous manual stirring. The mixture of the 4 ingredients is then subjected for 30 minutes to a centrifugation of 4000 rpm.
# [2] = Visual stability of the mother solution diluted in distilled water (pH 7) or acetic acid (pH 2.2); format: physicochemical; details: absence of light, 24 h
# Method: (§2) 400 μl of the solution produced are taken and poured into a tube of 5 ml of distilled water (pH 7).
# 400 μl of the solution produced are taken and poured into a tube of 5 ml of acetic acid (pH 2.2).
# as §2
# 200 μl of the solution produced are taken and poured into a tube of 5 ml of distilled water (pH 7).
# 200 μl of the solution produced are taken and poured into a tube of 5 ml of acetic acid (pH 2.2).
# 250 μl of the solution produced are taken and poured into a tube of 5 ml of distilled water (pH 7).
# 250 μl of the solution produced are taken and poured into a tube of 5 ml of acetic acid (pH 2.2).
# [3] = Storage stability of the mother solution (deposition); details: no ethanol
# [4] = DLS (Dynamic Light Scattering) particle size of resolubilized dry powder, Zetasizer; format: physicochemical; details: 100 mg dry powder in 100 ml pure water, kept in the dark 14 days
# Method: 100 mg of dry powder of Curcumin of the preceding example are dissolved in 100 ml of pure water before being kept in the dark for 14 days. This solution is then evaluated with DLS (Dynamic Light Scattering) in a Zetasizer apparatus (University of Namur).
# [5] = substance alone; cited from earlier work
# [6] = Redissolution of dried, ground liquid crystal powders and visual pH variation test; format: physicochemical; details: for changes of resolubilized dry powder solution over time: absence of light, 24 h
# Method: The remaining solution of the preceding example is poured into a glass Petri dish (diameter 35 mm) and subjected to drying at 60° C. in a hot air dehydrator (Stockli).
# The dry product is then ground until it reaches±50 Mesh and stored in the absence of light and moisture for 10 days.
# Next, 100 mg of dry powder are taken and poured into a tube of 5 ml of distilled water (pH 7).
# Next, 100 mg of dry powder are taken and poured into a tube of 5 ml of acetic acid (pH 2.2).
# Then this acidic solution is brought to an alkaline pH of 8 by adding sodium bicarbonate, in order to mimic the conditions of the pH differences encountered in the stomach and then the intestine.
# [7] = octanol/water partition coefficient; cited from earlier work
# [8] = mother solution poured into 5 ml acetic acid (pH 2.2)
# [9] = mother solution poured into 5 ml distilled water (pH 7)
SMILES,"estimated concentration of mother solution after centrifugation ([1]; 2 ml water, Polysorbate 80, 2 g betaine, no ethanol)","changes of diluted solution over time [2, 8]","changes of diluted solution over time [2, 9]",stability of mother solution on storage [3],estimated concentration of mother solution after centrifugation [1],factor by which solubility in water was multiplied [1],non-solubilized fraction remaining in the bottom of the tube (pellet/base) [1],"concentration of mother solution weighted for the pellet/base ([1]; 2 ml water, 40 μL Polysorbate 80, 2 g betaine, no ethanol)",average particle size of the solution [4],polydispersity [4],Solubility in Water [5],solubilization result (visual) [1],dissolution of dry powder ([6]; 100 mg dry powder (stored 10 days) in 5 ml acetic acid (pH 2.2)),dissolution of dry powder ([6]; 100 mg dry powder (stored 10 days) in 5 ml distilled water (pH 7)),changes of resolubilized dry powder solution over time ([6]; 5 ml acetic acid (pH 2.2)),changes of resolubilized dry powder solution over time ([6]; 5 ml distilled water (pH 7)),stability of the acidic solution brought to alkaline pH ([6]; pH 2.2 solution brought to pH 8 with sodium bicarbonate),Log P [7]
C=C(C)[C@@H]1CCC(C)=C[C@H]1c1c(O)cc(CCCCC)cc1O [Cannabidiol],47 mg/mL,no changes over time,no changes over time,"remained stable without any deposition, or modification for a year",–,–,–,–,–,–,–,–,–,–,–,–,–,–
COc1cc(/C=C/C(=O)CC(=O)/C=C/c2ccc(O)c(OC)c2)ccc1O [Curcumin],–,no changes over time,no changes over time,–,80 mg/mL,"10,000",30-40%,60000 µg/mL,≤ 10 nanometers,very low,5.75 µg/mL,–,–,–,–,–,–,–
CC(C)/N=c1\cc2n(-c3ccc(Cl)cc3)c3ccccc3nc-2cc1Nc1ccc(Cl)cc1 [Clofazimine],–,no changes over time,no changes over time,–,14.7 mg/mL,9730,–,–,–,–,1.51 µg/mL,completely solubilized,immediately solubilizes,immediately solubilizes,no changes over time,no changes over time,remains stable without any precipitation or modification,7.39
